In patent publication US20250360505A1, “MICRO-BIOELECTROCHEMICAL CELL DEVICES AND METHODS OF DETECTING ELECTRON FLOWS” (Washington University, priority 2019, published 2025) one finds Current density data, which are given here for two compounds.

The test has as its system Rhodopseudomonas palustris TIE-1 wild-type biofilms. Briefly: μ-BEC current density measurement of extracellular electron uptake (EEU) by surface-attached biofilms treated with photosynthetic ETC inhibitors. Format: cell-based. The note with it: working electrode poised at +100 mV vs. SHE, inhibitor concentration not given.
The mark [1] stands for this setting: illuminated (phototrophic) conditions.

Take antimycin A: the Current density was −3.46±1.80 nA cm^−2 (dark conditions) and 12.46±1.34 nA cm^−2 under setting [1].

As to `N#CC(C#N)=NNc1cccc(Cl)c1` [CCCP, carbonyl cyanide m-chlorophenyl hydrazone], the Current density runs as follows: (dark conditions) −18.4±14.0 nA cm^−2; under setting [1], 21.2±9.13 nA cm^−2.
